The results in this text go back to US8426684B2 (Washington State University Research Foundation, priority 2004, dated 2013).

For data set [1], the target named is T1, menthone: (3R)-(−)-menthol reductase (SEQ ID NO:2) (Mentha x piperita, UniProt Q5CAF4). The data set can be described thus: Substrate specificity of the reductase. The class given is biochemical. As to conditions: 100 μM monoterpenone substrate, 500 μM NADPH, 0.5 μg reductase, pH optimum, overnight incubation.
The target in data set [2] is T1, menthone: (3R)-(−)-menthol reductase (SEQ ID NO:2). Kind of data set: In vitro demonstration of menthone reductase activity (product analysis by GC, GC-MS). The class given is biochemical. The note with it: partially purified recombinant protein. The procedure:
Bacteria harboring the pSBET-reductase plasmid or the pET-reductase plasmid were grown in 5 ml cultures of Luria-Bertani (LB) media to an OD600 of 0.8-1.0, at which time the cultures were cooled to 10° C., isopropyl-β-D-thiogalactopyranoside was added to 0.25 mM, and growth was continued for 12-18 h at 10° C. with shaking at 220 rpm. Cells were pelleted by centrifugation for 25 min at 2500 g and 4° C., and then resuspended in 1 ml resuspension buffer (50 mM Mopso, pH 7, with 10% (v/v) glycerol, 10% (w/v) sorbitol, and 10 mM […]) containing 0.4 mg/ml lysozyme. Following incubation on ice for 30 min, the extract was sonicated for 10 sec with a Virtis sonicator using a microtip probe at medium power. Cell debris was pelleted by centrifugation at 27,000 g at 4° C. for 30 min, and the supernatant, containing the operationally soluble reductase, was used for initial characterization.
Following incubation with gentle shaking at 31° C. for 12 h, 0.5 ml of pentane was added and the mixture was vigorously mixed to extract the monoterpene products which were analyzed by GC and GC-MS as described above. […] Following 15 h of shaking (250 rpm) at 15-20° C., these cultures were transferred to 0.5 L round-bottom flasks, to which 6.6 μmol of (+)-camphor was added as an internal standard, and the mixture was steam distilled and the distillate analyzed as described above.

Data set [3] shares this target. As to conditions: at saturation under linear reaction conditions.
Experimental: Assay mixtures containing 2 ml of 40 mM KH2PO4 at pH 7, with 10 mM β-mercaptoethanol were combined with 500 μM cofactor and concentrations of monoterpene substrate ranging from 2.5 μM to 1 mM, or with 100 μM monoterpene substrate, and concentrations of cofactor ranging from 0.1 μM to 1 mM, and preheated to 31° C. before initiation of the reaction by enzyme addition (0.008 to 1.3 μg protein). The reactions were quenched after 6 to 9 min by addition of 0.5 ml pentane containing camphor as internal standard (6.6 μM) followed by vigorous mixing and cooling on ice; quantitation of products in the pentane extract was achieved by capillary-GC using the conditions described above with peak area quantification using the internal standard for normalization. […] Kinetic constants, representing the average of at least two independent experiments, were determined by nonlinear regression analysis of Michaelis-Menten plots using Enzyme Kinetics, v 1.11 (Trinity Software, Plymouth, N.H.). The values reported are the means±standard error.
Substrate in data set [4]: CC(C)[C@H]1CC[C@@H](C)CC1=O
The data set can be described thus: purified protein, by the assay type. The note with it: other: monoterpene substrate, NADPH as cofactor, reductase expressed from pSBET, pH 7, 31° C., means±standard error.

Substrate in data set [5]: CC(C)[C@@H]1CC[C@@H](C)CC1=O
Kind of data set: purified protein, by the assay type. As to conditions: other: monoterpene substrate, NADPH as cofactor, reductase expressed from pSBET, pH 7, 31° C., means±standard error.

Data set [6] concerns the target T1, menthone: (3R)-(−)-menthol reductase (SEQ ID NO:2). The data set can be described thus: pH optimum of the reductase. The class given is biochemical. As to conditions: 25 μM menthone, 500 μM NADPH, 0.5 μg protein, 6 min at 31° C.
The mark [7] stands for this setting: from (+)-isomenthone in the presence of NADPH.
[8] abbreviates: from (−)-menthone in the presence of NADPH.

Where “and” joins values, the source holds several entries; their conditions need not be identical. Identical values can stand only once.

For the molecule `C=C(C)C1CCC(C)=CC1=O` (single isomer, unassigned; (-)) [(−)-isopiperitenone], the “reduction of alternate substrate to the corresponding monoterpenols” value (“reduction of alternate substrate” for short) in data set [1] is “only able to detectably reduce (+)-menthone”.

For the molecule `CC(C)[C@H]1CC[C@@H](C)CC1=O` [isomenthone, (+)-isomenthone], in data set [2] (setting [7]), the “product share (3R)-(+)-neoisomenthol” value was found to be 87% and the “product share (3S)-(+)-isomenthol” value is recorded as 13%. Regarding `NC(=O)C1=CN([C@@H]2O[C@H](COP(=O)(O)OP(=O)(O)OC[C@H]3O[C@@H](n4cnc5c(N)ncnc54)[C@H](O)[C@@H]3O)[C@@H](O)[C@H]2O)C=CC1` [NADH], the “turnover with NADH as cofactor compared with NADPH” value in data set [3] was “less than 20%”.

In the case of (+)-menthone, in data set [1], the “reduction of alternate substrate” value is reported as “detectably reduce”. On the same count and under the same terms, then `CC(C)=C1CC[C@@H](C)CC1=O` [(+)-pulegone], with “only able to detectably reduce (+)-menthone”. In the case of `CC(C)[C@@H]1CC[C@@H](C)CC1=O` [menthone, (−)-menthone], in data set [2] (setting [8]), the “product share (3R)-(−)-menthol” value is on record as 95% and the “product share (3S)-(+)-neomenthol” value stood at 5%.

On to `C=C(C)C1CC=C(C)C(=O)C1` (single isomer, unassigned; (-)) [(−)-carvone], for which, in data set [1], the “reduction of alternate substrate” value was “only able to detectably reduce (+)-menthone”. On the same count and under the same terms, the result for `C=C(C)[C@H]1CC[C@@H](C)CC1=O` (relative stereo) [(+)-cis-isopulegone] reads “only able to detectably reduce (+)-menthone”.

B1: menthone: (3R)-(−)-menthol reductase (SEQ ID NO:2) (Mentha x piperita) (protein)
chain: MADTFTQRYALVTGANKGIGFEICRQLASKGMKVILASRNEKRGIEARERLLKESRSISDDDVVFHQLDVADPASAVAVAHFIETKFGRLDILVNNAGFTGVAIEGDISVYQECLEANIIAAQGGQAHPFHPKTTGRLIETLEGSKECIETNYYGTKRITETLIPLLQKSDSPTIVNVSSTFSTLLLQPNEWAKGVFSSNSLNEGKVEEVLHEFLKDFIDGKLQQNHWPPNFAAYKVSKAAVNAYTRIIARKYPSFCINSVCPGFVRTDICYNLGVLSEAEGAEAPVKLALLPDGGPSGSFFSREEALSLY
As usually defined, the Km is the concentration of substrate that gives half-maximal velocity. What is called kcat is the number of substrate molecules converted per active site and unit of time at saturation. B1: the Km in data set [4] stood at 41 ± 5 µM. For the same molecule, in data set [5], the Km stood at 3.0 ± 0.6 µM and the kcat was determined as 0.6 s⁻¹.

B2: reductase (SEQ ID NO:2): recombinant peppermint menthone: (3R)-(−)-menthol reductase, 311 residue protein encoded by cDNA SEQ ID NO:1, expressed in E. coli (protein)
chain: MADTFTQRYALVTGANKGIGFEICRQLASKGMKVILASRNEKRGIEARERLLKESRSISDDDVVFHQLDVADPASAVAVAHFIETKFGRLDILVNNAGFTGVAIEGDISVYQECLEANIIAAQGGQAHPFHPKTTGRLIETLEGSKECIETNYYGTKRITETLIPLLQKSDSPTIVNVSSTFSTLLLQPNEWAKGVFSSNSLNEGKVEEVLHEFLKDFIDGKLQQNHWPPNFAAYKVSKAAVNAYTRIIARKYPSFCINSVCPGFVRTDICYNLGVLSEAEGAEAPVKLALLPDGGPSGSFFSREEALSLY
modifications: Mentha Piperita
As for B2, in data set [6], the “pH of half maximal activities” value was 4.5 and 8.5; the pH optimum is 7.0.
